The test system of this experiment is Reticulitermes speratus workers (worker termites). The experiment in a line: egg recognition activity: conveyance of coated mimetic eggs (glass beads) into the egg mass in a petri dish. Format: in vivo. The note with it: lysozyme samples tested on termites. How it is done: Egg recognition activities of a termite egg extract, lysozyme purified from the termite egg extract, a termite egg extract degraded by proteinase, egg white lysozyme, cellulase, a mixture of egg white lysozyme and cellulase, and 30% glycerin aqueous solution as a control were investigated by using Reticulitermes speratus workers (worker termites).
Each test samples was prepared as follows.
800 μL of ultrapure water was added to 400 mg of Reticulitermes speratus eggs in an Eppendorf tube, and homogenized, and subjected to ultrasonic treatment for 5 minutes, and centrifugation was performed at 15,000 rpm for 30 minutes. The supernatant was lyophilized, and 5.0 mg of the lyophilized powder was dissolved in 100 μL of 30% glycerin aqueous solution (termite egg extract). The termite egg extract prepared in the same manner as described above was purified by BioRex 70 (BioRad Laboratories, CA, USA) cation-exchange resin, and further, lysozyme fractions were isolated by Q-1 column chromatography (BioRad Laboratories, CA, USA) and Methyl HIC column chromatography (BioRad Laboratories, CA, USA), and 1.0 mg of lyophilized powder thereof was dissolved in 20 μL of 30% glycerin aqueous solution (lysozyme isolated from termite egg extract). […]

“lysozyme derived from chicken egg white: egg white lysozyme (SIGMA) dissolved in 30% glycerin aqueous solution”: the “egg recognition activity of termites” value is reported as “high activity”.

Values taken from US8691218B2, “Vermin extermination using lysozyme, salt or biological fragment thereof, or lysozyme-related peptide as an egg recognition pheromone” (National University Corporation Okayama University, priority 2007, dated 2014).
